Laboratory results taken from patent US20110002859A1, “CHEWING GUM CONTAINING EUCALYPTUS EXTRACT” (LOTTE CO., LTD., priority 2008, published 2011).
≈ marks a conversion by molar mass, not a printed value.

Columns and labels:
[1] = test system: Prevotella melaninogenica ATCC25845; test: In vitro antibacterial activity, minimum inhibitory concentration (MIC); format: cell-based; conditions: 37° C., anaerobic, 24 to 48 hours, turbidity 550 nm; read-out: MIC, bacterial strain c
Protocol: (§1) In vitro antibacterial activities of Macrocarpal A, macrocarpal B, and macrocarpal C were evaluated according to the following procedure. First, to 25 ml of a medium, added were 2.5 ml of various pre-cultured periodontopathic bacteria described below, and the whole was mixed well. A sample solution was prepared by diluting in two stages a sample stock solution on a 96-well plate by using a diluent. Within each well of the 96-well plate, 100 μl of the sample solution and 100 μl of a bacterial solution were mixed, and cultivated at 37° C. under an anaerobic condition for 24 to 48 hours. The turbidity (550 nm) of each well was measured with a microplate reader, the growth of the bacterium was assessed, and its minimum inhibitory concentration (MIC) was determined. […] (Used Bacterial Strain) c: Prevotella melaninogenica ATCC25845

[2] = test system: periodontopathic bacteria; test: In vitro growth prevention of all tested periodontopathic bacteria; format: cell-based; conditions: all four strains of Table 1
Protocol: In vitro antibacterial activities of Macrocarpal A, macrocarpal B, and macrocarpal C were evaluated according to the following procedure. First, to 25 ml of a medium, added were 2.5 ml of various pre-cultured periodontopathic bacteria described below, and the whole was mixed well. A sample solution was prepared by diluting in two stages a sample stock solution on a 96-well plate by using a diluent. Within each well of the 96-well plate, 100 μl of the sample solution and 100 μl of a bacterial solution were mixed, and cultivated at 37° C. under an anaerobic condition for 24 to 48 hours. The turbidity (550 nm) of each well was measured with a microplate reader, the growth of the bacterium was assessed, and its minimum inhibitory concentration (MIC) was determined.

[3] = test system: Prevotella intermedia ATCC25611; test: In vitro antibacterial activity, minimum inhibitory concentration (MIC); format: cell-based; conditions: 37° C., anaerobic, 24 to 48 hours, turbidity 550 nm; read-out: MIC, bacterial strain b
Protocol: as §1, with “b:” for “c:”, “intermedia ATCC25611” for “melaninogenica ATCC25845”

[4] = test system: Porphyromonas gingivalis ATCC33277; test: as above; format: cell-based; conditions: 37° C., anaerobic, 24 to 48 hours, turbidity 550 nm; read-out: MIC, bacterial strain a
Protocol: as §1, with “a: Porphyromonas gingivalis ATCC33277” for “c: Prevotella melaninogenica ATCC25845”

[5] = test system: Capnocytophaga ochracea ATCC33596; test: as above; format: cell-based; conditions: 37° C., anaerobic, 24 to 48 hours, turbidity 550 nm; read-out: MIC, bacterial strain d
Protocol: as §1, with “d: Capnocytophaga ochracea ATCC33596” for “c: Prevotella melaninogenica ATCC25845”

[6] = test system: periodontopathic bacteria; conditions: background art; cited from earlier work

Row | SMILES | MIC [1] [µg/mL] | concentration capable of preventing periodontopathic bacteria from growing up [2] [µg/mL] | MIC [3] [µg/mL] | MIC [4] [µg/mL] | MIC [5] [µg/mL] | antibacterial activities against periodontopathic bacteria [6]
1 | CC(C)C[C@@H](c1c(O)c(C=O)c(O)c(C=O)c1O)[C@@]1(C)CC[C@@H]2[C@@H]1[C@H]1[C@@H](CC[C@@]2(C)O)C1(C)C [Macrocarpal A, macrocarpal A] | 0.78 (≈ 1.65 µM) | 0.78 | 0.195 (≈ 0.413 µM) | 0.195 (≈ 0.413 µM) | 0.39 (≈ 0.825 µM) | –
2 | CC(C)C[C@H](c1c(O)c(C=O)c(O)c(C=O)c1O)[C@@]1(C)CC[C@@H]2[C@@H]1[C@H]1[C@@H](CC[C@@]2(C)O)C1(C)C [Macrocarpal B, macrocarpal B] | 3.13 (≈ 6.62 µM) | 3.13 | 1.58 (≈ 3.34 µM) | 0.78 (≈ 1.65 µM) | 1.56 (≈ 3.3 µM) | –
3 | C=C1CC[C@@H]2[C@H]([C@H]3[C@H]1CC[C@]3(C)[C@@H](CC(C)C)c1c(O)c(C=O)c(O)c(C=O)c1O)C2(C)C [Macrocarpal C, macrocarpal C] | 1.58 (≈ 3.48 µM) | 1.58 | 0.39 (≈ 0.858 µM) | 0.195 (≈ 0.429 µM) | 0.39 (≈ 0.858 µM) | –
4 | CC12CCC(CC1)C(C)(C)O2 [cineole] | – | – | – | – | – | weak antibacterial activities
